The values that follow come from patent US20180074053A1 (priority 2016, published 2018).

Non-standard residues stand in square brackets, D forms with d. No end group written: not given here.

The subject of one assay is C57BL/6J mice. Nature of the assay: Oral glucose tolerance test (OGTT). The class given is in vivo, mouse. As to the method:
C57BL/6J mice were received from Jackson Laboratories at 4 weeks old and aged to 7 weeks and then grouped by body weight into 4 groups of 10. The mice were fasted overnight (12 hours) prior to the assay. Body weights and blood glucose (FreeStyle Lite glucometer) levels were determined. […] At 30, 60, 90, and 120 minutes glucose levels were measured using whole blood collected from the tip of the tail via needle puncture. Upon the final 120 min measurement, food was returned to the mice.
Oral glucose tolerance tests (OGTTs) were performed as described in Example 1.
(§1) C57BL/6J mice were received from Jackson Laboratories at 4 weeks old and aged to 7 weeks and then grouped by body weight into 4 groups of 10. The mice were fasted overnight (12 hours) prior to the assay. Body weights and blood glucose (FreeStyle Lite glucometer) levels were determined. […] At 30, 60, 90, and 120 minutes glucose levels were measured using whole blood collected from the tip of the tail via needle puncture.
as §1

A further assay relates to MrgprD^−/− (KO) mice. Conditions: 0.5 mg/g with 2 mg/g glucose oral; P<0.05 KO vs. WT. Here is the method:
(§2) The mice were fasted overnight and their fasting glucose levels were measured. […] Blood glucose levels were measured at 30, 60, 90 and 120 minutes after glucose loading.
as §2

The subject of assay [1] is C57/BL/6J mice and diabetic mouse models. Conditions: previous studies (Zhang 2013; U.S. Pat. No. 8,664,177); cited from earlier work.
The next assay deals with HUVEC cells. Conditions: 4 mM time course, 0.05-32.0 mM for 60 minutes; FIGS. 16, 17.
Assay [2] addresses MAS-related G-protein-coupled receptor member D (MRGD) (human, UniProt Q8TDS7 1-321). Kind of assay: cell-based or functional assay.

MAS-related G-protein-coupled receptor member D (MRGD), sequence (Q8TDS7 whole entry): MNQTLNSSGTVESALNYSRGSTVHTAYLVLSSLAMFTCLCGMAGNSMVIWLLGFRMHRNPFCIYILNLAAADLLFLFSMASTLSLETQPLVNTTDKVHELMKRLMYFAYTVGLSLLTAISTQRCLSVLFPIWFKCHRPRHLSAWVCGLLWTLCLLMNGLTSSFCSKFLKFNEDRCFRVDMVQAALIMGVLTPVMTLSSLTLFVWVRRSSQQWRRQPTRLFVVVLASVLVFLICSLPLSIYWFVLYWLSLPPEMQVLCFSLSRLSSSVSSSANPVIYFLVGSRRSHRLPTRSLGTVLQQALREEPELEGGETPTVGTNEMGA
Method for HUVEC cells: Briefly, HUVEC cells, previously plated in 96-well plate, were washed and the media changed to DMEM with 3% FBS for overnight incubation and cell starvation. On the day of the experiment, the cells were incubated with DAF-FM diacetate (Molecular Probes, catalog #D23842) at the final concentration of 7-10 nM for 30 minutes. […] Every treatment was performed in triplicate. The fluorescence was detected starting at 10 min with exc/em of 495 nm/515 nm.
The background signal (fluorescence signal from cells that were not loaded with dye) was subtracted from the other measurements.
Briefly, HUVEC cells, previously plated in 96-well plate, were washed and the media changed to DMEM with 3% FBS for overnight incubation and cell starvation. On the day of the experiment, the cells were incubated with DAF-FM diacetate (Molecular Probes, catalog #D23842) at the final concentration of 7-10 nM for 30 minutes. […] Every treatment was performed in triplicate. The fluorescence was detected 60 minutes with exc/em of 495 nm/515 nm.

On to `CC(C)C[C@@H](NC(=O)CNC(=O)CN)C(=O)O`, for which the “significance of blood glucose lowering in OGTT” value in the assay with C57BL/6J mice (Example 5, FIG. 9, 0.1 mg/g) was “significant”; with C57BL/6J mice (Example 5, FIG. 9, 0.5 mg/g), “significant”; in the assay on C57BL/6J mice (Example 5, FIG. 9, 1 mg/g), “significant”. Moreover, the “blood glucose in response to a glucose load (OGTT)” value in the assay on C57BL/6J mice (Example 5, FIG. 9, 1, 0.5 and 0.1 mg/g body weight) is recorded as “lower blood glucose in response to a glucose load, in a dose-dependent manner”. The “overall effect on blood glucose compared with metformin” value in the assay with C57BL/6J mice (Example 9) was “not found to be significantly different”. Besides, in the assay with C57BL/6J mice (Example 9, FIG. 14, DT-110 1 mg/g, alamandine 10 mg/g, metformin 0.2 mg/g), the “overall effect on blood glucose in OGTT vs vehicle” value was “significant”. In addition, the “rise in blood glucose at 30 min in OGTT” value in the assay on C57BL/6J mice (Example 9, DT-110 1 mg/g, P<0.001 vs. all other treatments) is reported as “dramatically blocked the rise in blood glucose”. The “effect on blood glucose compared with alamandine” value with C57BL/6J mice (Example 9, P<0.001) is “significantly different from alamandine”. The “reduction of blood glucose levels in KO mice compared with WT mice (OGTT)” value in the assay with MrgprD^−/− (KO) mice is given as “significantly impaired”. Further, in assay [1], the blood glucose result is “lower blood glucose”. Besides, in the assay with HUVEC cells, the “nitric oxide (NO) release” value was “Stimulates Nitric Oxide Release”.

B1: DT-110, tripeptide glycine-glycine-D-leucine (GGdL) (peptide)
peptide: Gly-Gly-[dL]
With B1, in assay [2], the “EC50, calcium mobilization in MRGD cells (FIG. 12)” value was approximately 360 µM; the “EC50, calcium mobilization in MRGD over-expressing cells (FIG. 5)” value was found to be 76 µM; the “EC50, calcium mobilization in the MRGD cell line (FIG. 8)” value was found to be 161 µM.
